# Assay results reported in patent US10774064B2 (Cadent Therapeutics, Inc., priority 2016, dated 2020).
# Biological target: T1, small-conductance Ca2+-activated K+ channels (SK channels, subtype 2) (Homo sapiens, UniProt Q9H2S1)
# T1 construct: expressed in transfected cells; host or cells: HEK293
# Experiment: whole-cell patch-clamp of ionic current through SK2 channels in HEK293 cells (SC100)
# Type: cell-based
# Details: concentration that increases the basal current by 100%; HEK293 cells expressing SK2 channels
# Summary of the method: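 Whole-cell patch-clamp recording of current in HEK293 cells expressing SK2 channels. SC100 is the compound concentration that increases basal current by 100%.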
row,SC100,Compound
1,+ (+ means >1 uM),"Cc1ccn(-c2nc(NC3CCC(F)(F)CC3)cc(N3CC4C(N)C4C3)n2)n1 (centres unmarked) [Compound 155, 3-(6-((4,4-difluorocyclohexyl)amino)-2-(3-methyl-1H-pyrazol-1-yl)pyrimidin-4-yl)-3-azabicyclo[3.1.0] hexan-6-amine]"
2,++ (++ means 200 nM-1000 nM),"CC(C)C(=O)N1CC(Oc2cc(NC3CCC(F)(F)CC3)nc(-c3nc(CF)cs3)n2)C1 [Compound 342, 1-(3-((6-((4,4-difluorocyclohexyl)amino)-2-(4-(fluoromethyl)thiazol-2-yl)pyrimidin-4-yl)oxy)azetidin-1-yl)-2-methylpropan-1-one]"
3,++ (++ means 200 nM-1000 nM),"Cc1cc(NC2CCC(F)(F)CC2)nc(-n2ccc(CC#N)n2)n1 [Compound 208, 2-(1-(4-((4,4-difluorocyclohexyl)amino)-6-methylpyrimidin-2-yl)-1H-pyrazol-3-yl)acetonitrile]"

# Same assay, conditions: whole-cell patch-clamp, HEK293 cells expressing SK2 channels; concentration that increases the basal current by 100%
row,Compound,SC100 (μM)
1,"Cc1ccc(-c2nc(NC3CCC(F)(F)CC3)cc(N3CCOCC3)n2)o1 [IN10971-077-P1, N-(4,4-difluorocyclohexyl)-2-(5-methylfuran-2-yl)-6-morpholinopyrimidin-4-amine]",+ (+ means >1 uM)
2,Cc1ccn(-c2nc(NC3CCCCC3(F)F)cc(N3CCOCC3)n2)n1 (centres unmarked) [IN11140-062-P1],+ (+ means >1 uM)
3,Cc1ccn(-c2cc(CNC(=O)C(C)C)cc(NC3CCC(F)(F)CC3)n2)n1 [NSSy5637],++ (++ means 200 nM-1000 nM)
4,Cc1csc(-c2nc(NC3CCC(F)(F)CC3)cc(S(C)(=O)=O)n2)n1 [IN11054-046-P1],+ (+ means >1 uM)
5,Cc1csc(-c2nc(NC3CCCCC3)cc(C(C)O)n2)n1 (centres unmarked) [IN10880-093-P1],++ (++ means 200 nM-1000 nM)
6,"CC(=O)NCc1cc(NC2CCC(F)(F)CC2)nc(-n2cc(C)c(CF)n2)c1 [NSSy5622, N-((2-((4,4-difluorocyclohexyl)amino)-6-(3-(fluoromethyl)-4-methyl-1H-pyrazol-1-yl)pyridin-4-yl)methyl)acetamide]",++ (++ means 200 nM-1000 nM)

# Further lines, results first:
row,SC100 (μM),Compound
1,+ (+ means >1 uM),"CC(O)c1cc(NC2CCC(F)(F)CC2)nc(-n2ccc(C3CC3)n2)n1 (centres unmarked) [NSSy6881, 1-(2-(3-cyclopropyl-1H-pyrazol-1-yl)-6-((4,4-difluorocyclohexyl)amino)pyrimidin-4-yl) ethan-1-ol]"
2,++ (++ means 200 nM-1000 nM),Cc1cc(C)n(-c2cc(N3C[C@H]4C[C@@H]3CO4)nc(NC3CCC(F)(F)CC3)n2)n1 [NSSy6638]
3,+ (+ means >1 uM),"Cc1nc(NC2CCC(F)(F)CC2)nc(-n2ccc(C3CC3)n2)n1 [NSSy7043, 4-(3-cyclopropyl-1H-pyrazol-1-yl)-N-(4,4-difluorocyclohexyl)-6-methyl-1,3,5-triazin-2-amine]"
4,++ (++ means 200 nM-1000 nM),"Cc1ccn(-c2cc(OC3CCS(=O)(=O)CC3)cc(NC3CCC(F)(F)CC3)n2)n1 [IN11146-089-P1, 4-((2-((4,4-difluorocyclohexyl)amino)-6-(3-methyl-1H-pyrazol-1-yl)pyridin-4-yl)oxy)tetrahydro-2H-thiopyran 1,1-dioxide]"
5,++ (++ means 200 nM-1000 nM),Cc1cn(CCOc2cc(NC3CCC(F)(F)CC3)nc(-n3ccc(C)n3)c2)nn1 [NSSy6849]
6,+ (+ means >1 uM),"CSc1cc(NC2CCC(F)(F)CC2)nc(-n2nc(C)cc2C)n1 [IN11067-060-P1, N-(4,4-difluorocyclohexyl)-2-(3,5-dimethyl-1H-pyrazol-1-yl)-6-(methylthio)pyrimidin-4-amine]"
7,++ (++ means 200 nM-1000 nM),Cc1ccn(-c2cc(OCc3ncn(C)n3)cc(NC3CCC(F)(F)CC3)n2)n1 [NSSy5641]
8,++ (++ means 200 nM-1000 nM),Cc1ccn(-c2nc(NC3CCC(F)(F)CC3)cc(N3CCN(C)C(=O)C3)n2)n1 [IN11177-049-P1]
